# What was measured:
# [1] = Cell cycle arrest in human THP1 cells assessed as decrease in cell levels at G2/M phase after 24 hrs by flow cytometric method; assay type: functional, cell-based; settings: THP-1
# THP-1 = experiment: Pro-apoptotic activity in human THP1 cells assessed as early apoptotic cells at 10 uM after 24 hrs by annexin V/propidium iodide staining-based flow cytometric method (reference value: 0.4 +/- 0.1%); assay type: functional
# [2] = Cell cycle arrest in human AsPC1 cells assessed as accumulation at S phase at 1 uM after 24 hrs by flow cytometric method (reference value: 23 +/- 3%); assay type: functional, cell-based
# ASPC1 [3] = experiment: Induction of pro-differentiation of human AsPC1 cells assessed as CD44 expression at 1 uM after 3 days by immunostaining-based micro-capillary flow cytometric method (reference value: 87 +/- 1%); assay type: functional
# [4] = Cell cycle arrest in human THP1 cells assessed as accumulation at S phase at 0.75 uM after 24 hrs by flow cytometric method (reference value: 16 +/- 2%); assay type: functional, cell-based; settings: THP-1
# [5] = Cell cycle arrest in human THP1 cells assessed as accumulation at S phase after 24 hrs by flow cytometric method; assay type: functional, cell-based; settings: THP-1
# ASPC1 [6] = experiment: Pro-apoptotic activity in human AsPC1 cells assessed as early apoptotic cells at 10 uM after 24 hrs by annexin V/propidium iodide staining-based flow cytometric method (reference value: 0.8 +/- 0.1%); assay type: functional
# [7] = Cell cycle arrest in human AsPC1 cells assessed as accumulation at G0/G1 phase at 100 uM after 24 hrs by flow cytometric method (reference value: 48 +/- 7%); assay type: functional, cell-based
compound,measurement,setting,value
NC(=[Se])N/N=C/c1cccc2cccnc12,Activity,[1],Dose-dependent effect
same,Activity,THP-1,6%
same,Activity,[2],35.5%
same,Activity,ASPC1 [3],53%
same,Activity,[4],21%
same,Activity,[5],Dose-dependent effect
same,Activity,ASPC1 [6],0.4%
same,Activity,[7],64.1%

# Source: ChEMBL document CHEMBL3861944 (Medchemcomm, 2016)
